Measurements taken from patent US8192962B2, “Processes for detecting toxic substances” (Daikin Industries, Ltd., priority 2001, dated 2012).

Test system: Genes belonging to other category
Assay: DNA chip mRNA expression in yeast, genes belonging to other category (Table 9)
Format: cell-based, Saccharomyces cerevisiae S288C
Outline: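 S. cerevisiae S288C grown at 25° C in YPD were exposed in log phase for two hours to one toxic chemical at a growth-inhibiting, non-lethal concentration; untreated cells served as control. Poly(A) mRNA was reverse-transcribed with Cy3/Cy5-dUTP and hybridized to a whole-genome yeast DNA chip at 65° C for over 12 hours; values are fluorescence ratios versus untreated.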

In the case of Na2As [(1)], the “The level of expressed mRNA in the presence of chemical substance/The level of expressed mRNA in the absence of chemical substance” value (yeast gene YKL008C) was 1.2, the “The level of expressed mRNA in the presence of chemical substance/The level of expressed mRNA in the absence of chemical substance” value (yeast gene YKL013C) was 1.4 and the “The level of expressed mRNA in the presence of chemical substance/The level of expressed mRNA in the absence of chemical substance” value (yeast gene YKL039W) was 0.8. For the same substance, the “The level of expressed mRNA in the presence of chemical substance/The level of expressed mRNA in the absence of chemical substance” value (yeast gene YKL041W) was 1.2, the “The level of expressed mRNA in the presence of chemical substance/The level of expressed mRNA in the absence of chemical substance” value (yeast gene YKL096W) was 1.4 and the “The level of expressed mRNA in the presence of chemical substance/The level of expressed mRNA in the absence of chemical substance” value (yeast gene YKL139W) was 0.9. The “The level of expressed mRNA in the presence of chemical substance/The level of expressed mRNA in the absence of chemical substance” value (yeast gene YKL165C) was 0.5, the “The level of expressed mRNA in the presence of chemical substance/The level of expressed mRNA in the absence of chemical substance” value (yeast gene YKL193C) was 1.3 and the “The level of expressed mRNA in the presence of chemical substance/The level of expressed mRNA in the absence of chemical substance” value (yeast gene YLR120C) was 1.2. The “The level of expressed mRNA in the presence of chemical substance/The level of expressed mRNA in the absence of chemical substance” value (yeast gene YLR136C) was 1.3, the “The level of expressed mRNA in the presence of chemical substance/The level of expressed mRNA in the absence of chemical substance” value (yeast gene YLR178C) was 1.7 and the “The level of expressed mRNA in the presence of chemical substance/The level of expressed mRNA in the absence of chemical substance” value (yeast gene YLR250W) was 1.5. The “The level of expressed mRNA in the presence of chemical substance/The level of expressed mRNA in the absence of chemical substance” value (yeast gene YLR327C) was 5.5, the “The level of expressed mRNA in the presence of chemical substance/The level of expressed mRNA in the absence of chemical substance” value (yeast gene YLR356W) was 1.0 and the “The level of expressed mRNA in the presence of chemical substance/The level of expressed mRNA in the absence of chemical substance” value (yeast gene YLR362W) was 1.1. The “The level of expressed mRNA in the presence of chemical substance/The level of expressed mRNA in the absence of chemical substance” value (yeast gene YLR429W) was 0.7, the “The level of expressed mRNA in the presence of chemical substance/The level of expressed mRNA in the absence of chemical substance” value (yeast gene YMR004W) was 0.9 and the “The level of expressed mRNA in the presence of chemical substance/The level of expressed mRNA in the absence of chemical substance” value (yeast gene YMR094W) was 1.0. For the same substance, the “The level of expressed mRNA in the presence of chemical substance/The level of expressed mRNA in the absence of chemical substance” value (yeast gene YMR104C) was 1.9, the “The level of expressed mRNA in the presence of chemical substance/The level of expressed mRNA in the absence of chemical substance” value (yeast gene YMR219W) was 0.7 and the “The level of expressed mRNA in the presence of chemical substance/The level of expressed mRNA in the absence of chemical substance” value (yeast gene YMR226C) was 1.1. The “The level of expressed mRNA in the presence of chemical substance/The level of expressed mRNA in the absence of chemical substance” value (yeast gene YMR275C) was 0.7, the “The level of expressed mRNA in the presence of chemical substance/The level of expressed mRNA in the absence of chemical substance” value (yeast gene YMR276W) was 0.6 and the “The level of expressed mRNA in the presence of chemical substance/The level of expressed mRNA in the absence of chemical substance” value (yeast gene YNL006W) was 1.1. For the same substance, the “The level of expressed mRNA in the presence of chemical substance/The level of expressed mRNA in the absence of chemical substance” value (yeast gene YNL007C) was 0.7, the “The level of expressed mRNA in the presence of chemical substance/The level of expressed mRNA in the absence of chemical substance” value (yeast gene YNL093W) was 2.1 and the “The level of expressed mRNA in the presence of chemical substance/The level of expressed mRNA in the absence of chemical substance” value (yeast gene YNL333W) was 1.0. The “The level of expressed mRNA in the presence of chemical substance/The level of expressed mRNA in the absence of chemical substance” value (yeast gene YNR010W) was 1.3, the “The level of expressed mRNA in the presence of chemical substance/The level of expressed mRNA in the absence of chemical substance” value (yeast gene YNR069C) was 1.5 and the “The level of expressed mRNA in the presence of chemical substance/The level of expressed mRNA in the absence of chemical substance” value (yeast gene YOL013C) was 0.9. For the same substance, the “The level of expressed mRNA in the presence of chemical substance/The level of expressed mRNA in the absence of chemical substance” value (yeast gene YOL164W) was 0.9, the “The level of expressed mRNA in the presence of chemical substance/The level of expressed mRNA in the absence of chemical substance” value (yeast gene YOR036W) was 1.8 and the “The level of expressed mRNA in the presence of chemical substance/The level of expressed mRNA in the absence of chemical substance” value (yeast gene YOR117W) was 0.8. The “The level of expressed mRNA in the presence of chemical substance/The level of expressed mRNA in the absence of chemical substance” value (yeast gene YOR124C) was 0.6, the “The level of expressed mRNA in the presence of chemical substance/The level of expressed mRNA in the absence of chemical substance” value (yeast gene YOR132W) was 0.9 and the “The level of expressed mRNA in the presence of chemical substance/The level of expressed mRNA in the absence of chemical substance” value (yeast gene YOR157C) was 1.0. For the same substance, the “The level of expressed mRNA in the presence of chemical substance/The level of expressed mRNA in the absence of chemical substance” value (yeast gene YOR181W) was 1.0, the “The level of expressed mRNA in the presence of chemical substance/The level of expressed mRNA in the absence of chemical substance” value (yeast gene YOR185C) was 1.1 and the “The level of expressed mRNA in the presence of chemical substance/The level of expressed mRNA in the absence of chemical substance” value (yeast gene YOR198C) was 1.0. The “The level of expressed mRNA in the presence of chemical substance/The level of expressed mRNA in the absence of chemical substance” value (yeast gene YOR259C) was 0.8, the “The level of expressed mRNA in the presence of chemical substance/The level of expressed mRNA in the absence of chemical substance” value (yeast gene YOR261C) was 1.0 and the “The level of expressed mRNA in the presence of chemical substance/The level of expressed mRNA in the absence of chemical substance” value (yeast gene YOR288C) was 0.9. The “The level of expressed mRNA in the presence of chemical substance/The level of expressed mRNA in the absence of chemical substance” value (yeast gene YOR355W) was 0.7, the “The level of expressed mRNA in the presence of chemical substance/The level of expressed mRNA in the absence of chemical substance” value (yeast gene YOR383C) was 0.9 and the “The level of expressed mRNA in the presence of chemical substance/The level of expressed mRNA in the absence of chemical substance” value (yeast gene YPL089C) was 1.2. The “The level of expressed mRNA in the presence of chemical substance/The level of expressed mRNA in the absence of chemical substance” value (yeast gene YPL109C) was 1.1, the “The level of expressed mRNA in the presence of chemical substance/The level of expressed mRNA in the absence of chemical substance” value (yeast gene YPL149W) was 1.5 and the “The level of expressed mRNA in the presence of chemical substance/The level of expressed mRNA in the absence of chemical substance” value (yeast gene YPL154C) was 0.7. For the same substance, the “The level of expressed mRNA in the presence of chemical substance/The level of expressed mRNA in the absence of chemical substance” value (yeast gene YPR103W) was 0.7 and the “The level of expressed mRNA in the presence of chemical substance/The level of expressed mRNA in the absence of chemical substance” value (yeast gene YPR108W) was 0.8.
